Patent US20070049564A1 (Wyeth, priority 2005, published 2007)
Read-outs that look alike come from different tables or passages of the source.

Experiments:
Staph. aureus Smith [1] = assay: In vitro activity (MIC) against Staph. aureus Smith; format: cell-based; conditions: Staphylococcus aureus; Table 8
E. coli = assay: Range of MIC for E. coli strains; conditions: for MIC: Escherichia coli
Staph. = assay: Range of MIC for Staph. strains, including MRSA; conditions: for MIC: Staphylococcus aureus, MRSA
Staph. aureus Smith [2] = assay: In vivo activity (oral, iv; ED50) against Staph. aureus Smith in mice
Procedure: Representative examples of compounds of Formula I were tested for the oral efficacy using S. aureus Smith in mice.

E. coli GC 2236 = assay: MIC, broth microdilution
E. coli GC 2231 = assay: MIC, broth microdilution
E. coli GC 2235 = assay: MIC, broth microdilution
Procedure: (§1) Antimicrobial susceptibility testing. The in vitro activities of the antibiotics are determined by the broth microdilution method as recommended by the National Committee for Clinical Laboratory Standards (NCCLS) (1). Mueller-Hinton II broth (MHBII)(BBL Cockeysville, Md.) is the medium employed in the testing procedures. Microtiter plates containing serial dilutions of each antimicrobial agent are inoculated with each organism to yield the appropriate density (10^5 CFU/ml) in a 100 μl final volume. The plates are incubated for 18-22 hours at 35° C. in ambient air.
Representative compounds were first incubated in mouse serum for an hour prior to the in vitro testing against a panel of selected gram-positive and gram-negative bacteria strains. All compounds were also pre-incubated in water for an hour prior to testing as control. Representative compounds of Formula I were incubated in human serum prior to MIC determination.

E. coli GC 2232 = assay: MIC, broth microdilution
E. coli GC 2233 = assay: MIC, broth microdilution
E. coli GC 2234 = assay: MIC, broth microdilution
E. coli GC 2270 = assay: MIC, broth microdilution
E. coli GC 2271 = assay: MIC, broth microdilution
E. coli GC 2272 = assay: MIC, broth microdilution
E. coli GC 4559 = assay: MIC, broth microdilution
E. coli GC 4560 = assay: MIC, broth microdilution
E. coli GC 6465 = assay: MIC, broth microdilution
E. coli GC 3226 = assay: MIC, broth microdilution
E. coli GC 2203 = assay: MIC, broth microdilution
E. coli GC 1073 = assay: MIC, broth microdilution
Salmonella spp. GC 235 = assay: MIC, broth microdilution
Procedure: as §1
Representative compounds were first incubated in mouse serum for an hour prior to the in vitro testing against a panel of selected gram-positive and gram-negative bacteria strains. All compounds were also pre-incubated in water for an hour prior to testing as control.

Salmonella spp. GC 566 = assay: MIC, broth microdilution
S. cholerasius GC 1355 = assay: MIC, broth microdilution
Procedure: as §1
Presented in Tables I-XIII are representative compounds of Formula I which were evaluated against a panel of 40 selected gram-positive and gram-negative bacteria strains by pre-incubation in water, mouse serum or human serum. Representative compounds were first incubated in mouse serum for an hour prior to the in vitro testing against a panel of selected gram-positive and gram-negative bacteria strains. All compounds were also pre-incubated in water for an hour prior to testing as control. Representative compounds of Formula I were incubated in human serum prior to MIC determination.

S. typhimurium GC 2172 = assay: MIC, broth microdilution
P. aeruginosa GC 2214 = assay: MIC, broth microdilution
S. aureus GC 1131 = assay: MIC, broth microdilution
S. aureus GC 6466 = assay: MIC, broth microdilution
S. aureus GC 6467 = assay: MIC, broth microdilution
S. aureus GC 1079 = assay: MIC, broth microdilution
S. aureus GC 4536 = assay: MIC, broth microdilution
S. aureus GC 2216 = assay: MIC, broth microdilution
S. aureus GC 6335 = assay: MIC, broth microdilution
S. aureus GC 6469 = assay: MIC, broth microdilution
S. epidermidis GC 4935 = assay: MIC, broth microdilution
E. faecalis GC 4555 = assay: MIC, broth microdilution
E. faecalis GC 2265 = assay: MIC, broth microdilution
E. faecalis GC 2267 = assay: MIC, broth microdilution
E. faecalis GC 2242 = assay: MIC, broth microdilution
E. faecium GC 4556 = assay: MIC, broth microdilution
E. faecium GC 2243 = assay: MIC, broth microdilution
S. pneumoniae* GC 4465 = assay: MIC, broth microdilution
S. pneumoniae+ GC 4465 = assay: MIC, broth microdilution
S. pyogenes GC 4563 = assay: MIC, broth microdilution
S. agalactiae GC 4564 = assay: MIC, broth microdilution
c. albicans GC 3066 = assay: MIC, broth microdilution
[3] = 20 h, read-out: Range of MIC, E. coli (Mouse Serum)
[4] = read-out: Range of MIC, E. coli (mouse serum)
[5] = read-out: Range of MIC, Staph (Mouse Serum)
[6] = read-out: Range of MIC, Staph (Water)
[7] = read-out: Range of MIC, Staph. (mouse serum)
[8] = read-out: Range of MIC, Staph. (water)
[9] = Staphylococcus aureus, in Mus musculus, iv, read-out: ED50 SIV (Staph aureus Smith)
[10] = Staphylococcus aureus, in Mus musculus, po, read-out: ED50 SOD (Staph aureus Smith)
[11] = Staphylococcus aureus, in Mus musculus, po, read-out: ED50 Staph Smith SOD
[12] = iv, read-out: ED50 Staph Smith SIV

CCCN(CC(=O)Nc1cc(N(C)C)c2c(c1O)C(=O)C1=C(O)[C@]3(O)C(=O)C(C(N)=O)=C(O)[C@@H](N(C)C)C3CC1C2)C(=O)OCOC(=O)C1CCCCC1 (stereo partly drawn) [Example 33, ({[(2-{[(7S,10aS)-9-(aminocarbonyl)-4,7-bis(dimethylamino)-1,8,10a,11-tetrahydroxy-10,12-dioxo-5,5a,6,6a,7,10,10a,12-octahydrotetracen-2-yl]amino}-2-oxoethyl)(propyl)amino]carbonyl}oxy)methyl cyclohexanecarboxylate]
0.48 mg/kg: ED50 (Staph. aureus Smith [2]; [9])
4.91 mg/kg: ED50 (Staph. aureus Smith [2]; [10]) | ED50 (Staph. aureus Smith [2]; [11])
0.45 mg/kg: ED50 (Staph. aureus Smith [2]; [12])
0.5 to 2 µg/mL: MIC (E. coli; [3]) | MIC (E. coli; [4])
0.12 µg/mL: MIC (Staph. aureus Smith [1])
0.12 to 2 µg/mL: MIC (Staph.; [5]) | MIC (Staph.; [6]) | MIC (Staph.; [7]) | MIC (Staph.; [8])

CCCN(CC(=O)Nc1cc(N(C)C)c2c(c1O)C(=O)C1=C(O)[C@]3(O)C(=O)C(C(N)=O)=C(O)[C@@H](N(C)C)[C@@H]3C[C@@H]1C2)C(=O)OCOC(=O)CC(C)(C)C [Example 35, ({[(2-{[(5aR,6aS,7S,10aS)-9-(aminocarbonyl)-4,7-bis(dimethylamino)-1,8,10a,11-tetrahydroxy-10,12-dioxo-5,5a,6,6a,7,10,10a,12-octahydrotetracen-2-yl]amino}-2-oxoethyl)(propyl)amino]carbonyl}oxy)methyl 3,3-dimethylbutanoate]
3.5 mg/kg: ED50 (Staph. aureus Smith [2]; [10]) | ED50 (Staph. aureus Smith [2]; [11])
8 to 64 µg/mL: MIC (E. coli; read-out: Range of MIC, E. coli (Water)) | MIC (E. coli; read-out: Range of MIC, E. coli (water))
4 to 8 µg/mL: MIC (E. coli; [3]) | MIC (E. coli; [4])
0.43 mg/kg: ED50 (Staph. aureus Smith [2]; [9]) | ED50 (Staph. aureus Smith [2]; [12])
4 µg/mL: MIC (Staph. aureus Smith [1])
2 to 4 µg/mL: MIC (Staph.; [5]) | MIC (Staph.; [6]) | MIC (Staph.; [7]) | MIC (Staph.; [8])

CCCN(CC(=O)Nc1cc(N(C)C)c2c(c1O)C(=O)C1=C(O)[C@@]3(O)C(=O)C(C(N)=O)=C(O)[C@@H](N(C)C)C3CC1C2)C(=O)OCc1oc(=O)oc1C (stereo partly drawn) [Example 108, (5-methyl-2-oxo-1,3-dioxol-4-yl)methyl 2-{[(7S,10aR)-9-(aminocarbonyl)-4,7-bis(dimethylamino)-1,8,10a,11-tetrahydroxy-10,12-dioxo-5,5a,6,6a,7,10,10a,12-octahydrotetracen-2-yl]amino}-2-oxoethyl(propyl)carbamate]
8 UG/ML: MIC (E. coli GC 6465; pre-incubation in mouse serum) | MIC (Salmonella spp. GC 566; pre-incubation in water) | MIC (S. aureus GC 6467; pre-incubation in water)
1 UG/ML: MIC (E. coli GC 2235; pre-incubation in water) | MIC (E. coli GC 2232; pre-incubation in mouse serum) | MIC (E. coli GC 2233; pre-incubation in water) | MIC (E. coli GC 2270; pre-incubation in water) | MIC (E. coli GC 4559; pre-incubation in water) | MIC (E. coli GC 3226; pre-incubation in water) | MIC (E. coli GC 2203; pre-incubation in water) | MIC (Salmonella spp. GC 235; pre-incubation in mouse serum) | MIC (Salmonella spp. GC 566; pre-incubation in mouse serum) | MIC (S. aureus GC 6466; pre-incubation in water) | MIC (S. aureus GC 4536; pre-incubation in water) | MIC (S. aureus GC 2216; pre-incubation in water) | MIC (S. aureus GC 6335; pre-incubation in mouse serum) | MIC (S. aureus GC 6469; pre-incubation in water) | MIC (S. epidermidis GC 4935; pre-incubation in mouse serum) | MIC (E. faecalis GC 2265; pre-incubation in mouse serum) | MIC (E. faecalis GC 2267; pre-incubation in mouse serum) | MIC (E. faecalis GC 2242; pre-incubation in water) | MIC (E. faecium GC 4556; pre-incubation in water) | MIC (S. pneumoniae+ GC 4465; pre-incubation in mouse serum)
0.5 to 2 µg/mL: Range of MIC, E. coli (Mouse Serum) (E. coli; Mouse Serum, Table 1)
>2 mg/kg: ED50 Staph Smith SIV (Staph. aureus Smith [2]; single intravenous dose (SIV))
0.25 UG/ML: MIC (E. coli GC 2272; pre-incubation in mouse serum) | MIC (E. coli GC 4560; pre-incubation in water) | MIC (S. aureus GC 1131; pre-incubation in mouse serum) | MIC (S. aureus GC 6469; pre-incubation in mouse serum)
2 UG/ML: MIC (E. coli GC 2236; pre-incubation in water) | MIC (E. coli GC 2231; pre-incubation in mouse serum) | MIC (E. coli GC 2232; pre-incubation in water) | MIC (E. coli GC 2234; pre-incubation in water) | MIC (E. coli GC 1073; pre-incubation in water) | MIC (S. aureus GC 6467; pre-incubation in mouse serum) | MIC (S. aureus GC 1079; pre-incubation in mouse serum) | MIC (S. aureus GC 6335; pre-incubation in water) | MIC (S. epidermidis GC 4935; pre-incubation in water) | MIC (E. faecalis GC 2265; pre-incubation in water) | MIC (E. faecalis GC 2267; pre-incubation in water) | MIC (S. pneumoniae+ GC 4465; pre-incubation in water)
64 UG/ML: MIC (E. coli GC 6465; pre-incubation in water) | MIC (S. cholerasius GC 1355; pre-incubation in water)
32 UG/ML: MIC (S. cholerasius GC 1355; pre-incubation in mouse serum) | MIC (S. typhimurium GC 2172; pre-incubation in water) | MIC (P. aeruginosa GC 2214; pre-incubation in water)
1 to 8 µg/mL: Range of MIC, Staph (Water) (Staph.; Water, including MRSA, Table 1)
0.5 to 4 µg/mL: Range of MIC, E. coli (Water) (E. coli; Water, Table 1)
0.50 UG/ML: MIC (E. coli GC 2236; pre-incubation in mouse serum) | MIC (E. coli GC 2235; pre-incubation in mouse serum) | MIC (E. coli GC 2233; pre-incubation in mouse serum) | MIC (E. coli GC 2234; pre-incubation in mouse serum) | MIC (E. coli GC 2270; pre-incubation in mouse serum) | MIC (E. coli GC 2271; pre-incubation in mouse serum) | MIC (E. coli GC 2271; pre-incubation in water) | MIC (E. coli GC 2272; pre-incubation in water) | MIC (E. coli GC 4559; pre-incubation in mouse serum) | MIC (E. coli GC 3226; pre-incubation in mouse serum) | MIC (E. coli GC 2203; pre-incubation in mouse serum) | MIC (E. coli GC 1073; pre-incubation in mouse serum) | MIC (S. aureus GC 1131; pre-incubation in water) | MIC (S. aureus GC 6466; pre-incubation in mouse serum) | MIC (S. aureus GC 4536; pre-incubation in mouse serum) | MIC (S. aureus GC 2216; pre-incubation in mouse serum) | MIC (E. faecalis GC 4555; pre-incubation in mouse serum) | MIC (E. faecalis GC 4555; pre-incubation in water) | MIC (E. faecalis GC 2242; pre-incubation in mouse serum) | MIC (E. faecium GC 4556; pre-incubation in mouse serum) | MIC (E. faecium GC 2243; pre-incubation in mouse serum) | MIC (E. faecium GC 2243; pre-incubation in water)
0.25 to 2 µg/mL: Range of MIC, Staph (Mouse Serum) (Staph.; Mouse Serum, including MRSA, Table 1)
>32 mg/kg: ED50 Staph Smith SOD (Staph. aureus Smith [2]; single oral dose (SOD))
16 UG/ML: MIC (P. aeruginosa GC 2214; pre-incubation in mouse serum)
0.12 UG/ML: MIC (E. coli GC 4560; pre-incubation in mouse serum) | MIC (S. pneumoniae* GC 4465; pre-incubation in mouse serum) | MIC (S. pneumoniae* GC 4465; pre-incubation in water) | MIC (S. pyogenes GC 4563; pre-incubation in mouse serum) | MIC (S. pyogenes GC 4563; pre-incubation in water) | MIC (S. agalactiae GC 4564; pre-incubation in mouse serum) | MIC (S. agalactiae GC 4564; pre-incubation in water)
>64 UG/ML: MIC (c. albicans GC 3066; pre-incubation in mouse serum) | MIC (c. albicans GC 3066; pre-incubation in water)
4 UG/ML: MIC (E. coli GC 2231; pre-incubation in water) | MIC (Salmonella spp. GC 235; pre-incubation in water) | MIC (S. typhimurium GC 2172; pre-incubation in mouse serum) | MIC (S. aureus GC 1079; pre-incubation in water)
